Measurements: patent EP4585606A1, “OL[…] USE AND COMPOSITION THEREOF” (Buddhist Tzu Chi Medical Foundation, priority 2022, dated 2024)

System: human osteoblastic cells hFOB1.19
Assay: alkaline phosphatase (ALP) activity, TRACP & ALP detection kit
Type: cell-based
Conditions: hFOB1.19 not treated with the oligopeptides, CaCl2 0.01, 0.06, 0.2, 0.9 and 3.6 µM, 2 days
Procedure: The activity of alkaline phosphatase was measured by a TRACP & ALP detection kit. hFOB1.19 cells were cultured at 2×10^4 cells/well in a 96-well plate for 2 days. After removing the supernatant of the culture, the cells were resuspended in physiological saline. To each well 50 µl of the extract solution was added, and incubated at room temperature for 5 minutes. Then, 50 µl of the matrix solution was added to each well and reacted at 37°C for 60 minutes. Finally, 50 µl of 0.5N NaOH was added to each well to terminate the reaction. After formation of color, the solution was measured for the absorbance at 405 nm.
Alkaline phosphatase is present in bone at a high level, and frequently considered as the indicator for differentiation of osteoblastic cells and growth of bone. In Example 6, human osteoblastic cells hFOB1.19 was not treated with the oligopeptide at the condition of different concentrations of CaCl2, and was treated with the four oligopeptides (0.45 µM) described above at the condition of 3.6 µM CaCl2 for 2 days, to detect the ALP activities in human osteoblastic cells hFOB1.19. […] (In FIGs. 6A and 6B, three separate experiments were performed for each group, and the data were expressed by mean ± SD. Statistical significance: by one-tailed test, *P < 0.05, in respect to the Control groups (A-D).

## [Ca+2].[Cl-].[Cl-] [CaCl2]
  ALP activities: no significant change
